Assay results taken from patent US20090023718A1 (Aton Pharma, Inc., priority 2003, published 2009).
Where two headings read alike, the source gives them in different places.

What was measured:
[1] = target: T1, histone deacetylase, subtype 1 (HDAC1) (Homo sapiens, UniProt Q13547); test: HDAC1-Flag assay (in vitro fluorescent deacetylation assay); type: biochemical; details: epitope-tagged human HDAC1 complex, substrate at Km, mean ± spread (N), read-out: HDAC Inhibition (IC50) nm
T1 construct: Flag; made in house
T1 sequence (Q13547 whole entry): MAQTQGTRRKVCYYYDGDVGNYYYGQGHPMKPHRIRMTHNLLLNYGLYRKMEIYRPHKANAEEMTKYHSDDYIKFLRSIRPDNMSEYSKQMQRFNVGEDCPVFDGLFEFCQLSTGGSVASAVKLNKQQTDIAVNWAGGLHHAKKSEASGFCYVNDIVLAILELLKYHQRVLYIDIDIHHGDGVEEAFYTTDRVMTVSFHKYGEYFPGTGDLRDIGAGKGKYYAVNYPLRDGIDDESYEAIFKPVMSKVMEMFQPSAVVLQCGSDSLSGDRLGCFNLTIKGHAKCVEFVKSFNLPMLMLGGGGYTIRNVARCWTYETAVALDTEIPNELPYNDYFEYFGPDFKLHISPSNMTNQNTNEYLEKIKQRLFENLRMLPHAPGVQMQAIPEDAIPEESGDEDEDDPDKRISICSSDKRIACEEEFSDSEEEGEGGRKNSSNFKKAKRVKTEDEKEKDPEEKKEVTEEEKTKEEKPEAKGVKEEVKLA
Procedure: Novel compounds were tested for their ability to inhibit histone deacetylase, subtype 1 (HDAC1) using an in vitro deacetylation assay. The enzyme source for this assay was an epitope-tagged human HDAC1 complex immuno-purified from stably expressing mammalian cells. The substrate consisted of a commercial product containing an acetylated lysine side chain (BIOMOL Research Laboratories, Inc., Plymouth Meeting, Pa.). Upon deacetylation of the substrate by incubation with the purified HDAC1 complex, a fluorophore is produced that is directly proportional to the level of deacetylation.

[2] = tested on: murine erythroleukemia cell line SC9; test: MTS assay (Cell Titer 96 Aqueous One Solution Cell Proliferation Assay); type: cell-based; details: Mus musculus; SC9 cells, 48 hours incubation with increasing concentrations, inhibition of proliferation; mean ± spread (N)
Procedure: The novel compounds of the present invention were tested for their ability to inhibit proliferation of the murine erythroleukemia cell line SC9.
The MTS assay, also referred to as the Cell Titer 96 Aqueous One Solution Cell Proliferation Assay, is a colorimetric method for determining the number of viable cells in proliferation, cytotoxicity or chemosensitivity assays. The MTS reagent contains a novel tetrazolium compound [3-(4,5-dimethylthiazol-2-yl)-5-(3-carboxymethoxyphenyl)-2-(4-sulfophenyl)-2H-tetrazolium, inner salt] and electron coupling reagent (phenazine ethosulfate; PES). Murine erythroleukemia cells (SC-9) were incubated with vehicle or increasing concentrations of compound for 48 hours. Cell proliferation was quantitated by adding a small amount of the MTS reagent directly to culture wells, incubating for 1-4 hours and then recording the absorbance at 490 nm with a 96-well plate reader. The quantity of formazan product, as measured by […] absorbance, is directly proportional to the number of living cells in culture.

[3] = Table 1, compounds of formula II
[4] = Table 3, compounds of formula IV
[5] = Table 4, compounds of formula V
[6] = Table 5, other HDAC inhibitors of formula I

| Compound | IC50 [1, 3] [nM] | IC50 [2] [nM] | also measured |
| --- | --- | --- | --- |
| O=C(CCCCCC(=O)N(CC(=O)Nc1nc2ccccc2s1)CC(=O)Nc1nc2ccccc2s1)NO [Compound 3, Heptanedioic acid bis-(benzothiazol-2-ylcarbamoylmethyl)-amide hydroxyamide] | 9.5 ± 4.9 | 50 ± 27.7 | – |
| O=C(CCCCCC(=O)N(CC(=O)Nc1ccc(F)cc1)CC(=O)Nc1ccc(F)cc1)NO [Compound 4, Heptanedioic acid bis-[(4-fluoro-phenylcarbamoyl)-methyl]-amide hydroxyamide] | 16 | 128 | – |
| O=C(CCCCCC(=O)N(CC(=O)Nc1ccccc1)CC(=O)Nc1ccccc1)NO [Compound 6, Heptanedioic acid bis-phenylcarbamoylmethyl-amide hydroxyamide] | 20.5 ± 0.7 | 304 ± 83.4 | – |
| O=C(CCCCCC(=O)N(CC(=O)Nc1ccccc1)CC(=O)Nc1cccc2cccnc12)NO [Compound 7, Heptanedioic acid hydroxyamide phenylcarbamoylmethyl-(quinolin-8-ylcarbamoylmethyl)-amide] | 25 ± 21.2 | 46 ± 10.9 | – |
| O=C(CCCCCC(=O)N(CC(=O)NCCc1ccccc1)CC(=O)Nc1ccccc1)NO [Compound 8, Heptanedioic acid hydroxyamide (phenethylcarbamoyl-methyl)-phenylcarbamoylmethyl-amide] | 26 ± 5.6 | 852 | – |
| O=C(CCCCCC(=O)N(CC(=O)Nc1cccc2cccnc12)CC(=O)Nc1cccc2cccnc12)NO [Compound 9, Heptanedioic acid bis-(quinolin-8-ylcarbamoylmethyl)-amide hydroxyamide] | 26.5 ± 6.3 | 52 ± 24.9 | – |
| O=C(CCCCCC(=O)N(CC(=O)Nc1ccccc1)CC(=O)NC1CCCCC1)NO [Compound 11, Heptanedioic acid cyclohexylcarbamoylmethyl-phenylcarbamoylmethyl-amide hydroxyamide] | 34.5 ± 12.7 | 705 | – |
| O=C(CCCCCC(=O)N(CC(=O)Nc1ccc(C(F)(F)F)cc1)CC(=O)Nc1ccc(C(F)(F)F)cc1)NO [Compound 25, Heptanedioic acid bis-[(4-trifluoromethyl-phenylcarbamoyl)-methyl]-amide hydroxyamide] | 89.5 ± 12 | 340 | – |
| O=C(CCCCCC(=O)N(CC(=O)Nc1ccc2c(c1)OCO2)CC(=O)Nc1ccc2c(c1)OCO2)NO [Compound 29, Heptanedioic acid bis-(benzo[1,3]dioxol-5-ylcarbamoylmethyl)-amide hydroxyamide] | 22.5 ± 16.2 | 586 | – |
| COc1ccc2nc(NC(=O)CN(CC(=O)Nc3nc4ccc(OC)cc4s3)C(=O)CCCCCC(=O)NO)sc2c1 [Compound 34, Heptanedioic acid bis-[(6-methoxy-benzothiazol-2-ylcarbamoyl)-methyl]-amide hydroxyamide] | 7.6 ± 5.6 | 397 ± 98.2 | – |
| O=C(CCCCCC(=O)N(CC(=O)Nc1nc2ccc(Cl)cc2s1)CC(=O)Nc1nc2ccc(Cl)cc2s1)NO [Compound 35, Heptanedioic acid bis-[(6-chloro-benzothiazol-2-ylcarbamoyl)-methyl]-amide hydroxyamide] | 10.6 ± 7.7 | 645 | – |
| Cc1cccc2sc(NC(=O)CN(CC(=O)Nc3nc4c(C)cccc4s3)C(=O)CCCCCC(=O)NO)nc12 [Compound 36, Heptanedioic acid bis-[(4-methyl-benzothiazol-2-ylcarbamoyl)-methyl]-amide hydroxyamide] | 14.5 ± 4.9 | 275 ± 19 | – |
| O=C(CCCCCC(=O)N(CC(=O)NC1CCc2ccccc21)CC(=O)NC1CCc2ccccc21)NO (centres unmarked) [Compound 37, Heptanedioic acid bis-(indan-1-ylcarbamoylmethyl)-amide hydroxyamide] | 71 ± 1.4 | 388 | – |
| O=C(CCCCCC(=O)N(CC(=O)Nc1nc2ccc(F)cc2s1)CC(=O)Nc1nc2ccc(F)cc2s1)NO [Compound 39, Heptanedioic acid bis-[(6-fluoro-benzothiazol-2-ylcarbamoyl)-methyl]-amide hydroxyamide] | 31.5 ± 12 | 346 | – |
| O=C(CCCCCCN(CC(=O)Nc1ccccc1)CC(=O)Nc1ccccc1)NO [Compound 41, 7-(Bis-phenylcarbamoylmethyl-amino)-heptanoic acid hydroxyamide] | – | 332 | IC50 ([1]; Table 2, compounds of formula III): 18.5 ± 3.5 nM |
| O=C(CCCC(=O)N1CCN(c2ccc(Cl)cc2)CC1)NO [Compound 73, 5-[4-(4-Chloro-phenyl)-piperazin-1-yl]-5-oxo-pentanoic acid hydroxyamide] | – | – | IC50 [1, 4]: 988 ± 93.3 nM |
| O=C(CCCCC(=O)N1CCN(c2ccccc2)CC1)NO [Compound 74, 6-Oxo-6-(4-phenyl-piperazin-1-yl)-hexanoic acid hydroxyamide] | – | – | IC50 [1, 4]: 1350 ± 106 nM |
| O=C(CCCCC(=O)N1CCN(c2cccc(Cl)c2)CC1)NO [Compound 75, 6-[4-(3-Chloro-phenyl)-piperazin-1-yl]-6-oxo-hexanoic acid hydroxyamide] | – | – | IC50 [1, 4]: 621 ± 94 nM |
| O=C(CCCCC(=O)N1CCN(c2ccc(Cl)cc2)CC1)NO [Compound 76, 6-[4-(4-Chloro-phenyl)-piperazin-1-yl]-6-oxo-hexanoic acid hydroxyamide] | – | – | IC50 [1, 4]: 475 ± 9.1 nM |
| O=C(CCCCCCC(=O)N1CCN(c2cccc(Cl)c2)CC1)NO [Compound 77, 8-[4-(3-Chloro-phenyl)-piperazin-1-yl]-8-oxo-octanoic acid hydroxyamide] | – | – | IC50 [1, 4]: 39 ± 2.8 nM |
| O=C(CCCCCCCCC(=O)N1CCN(c2ccc(Cl)cc2)CC1)NO [Compound 79, 10-[4-(4-Chloro-phenyl)-piperazin-1-yl]-10-oxo-decanoic acid hydroxyamide] | – | – | IC50 [1, 4]: 169 ± 30.4 nM |
| O=C(CCCCCCN(Cc1ccccc1)Cc1ccccc1)NO [Compound 80] | – | – | IC50 [1, 5]: 374 ± 39.5 nM |
| O=C(CCCCCCN(CCc1ccccc1)Cc1ccccc1)NO [Compound 81] | – | 934 | IC50 [1, 5]: 159 ± 14.1 nM |
| O=C(CCCCCCN(CCc1c[nH]c2ccccc12)Cc1ccc(Br)cc1)NO [Compound 82] | – | – | IC50 [1, 5]: 188 ± 72.8 nM |
| O=C(CCCCCCCN(CCc1c[nH]c2ccccc12)Cc1ccc(Br)cc1)NO [Compound 83] | – | – | IC50 [1, 5]: 204 ± 58.6 nM |
| CN(CCCCCC(=O)NO)CC(=O)NCc1ccccc1 [Compound 85] | – | – | IC50 [1, 6]: 571 ± 52.3 nM |
| CN(CCCCCC(=O)NO)CC(=O)NCCc1ccccc1 [Compound 86] | – | – | IC50 [1, 6]: 247 ± 33.2 nM |
| Hexanedioic acid bis-(quinolin-8-ylcarbamoylmethyl)-amide hydroxyamide [Compound 15] | 82 ± 9.8 | – | – |
